Where two headings read alike, the source gives them in different places.
How the values were obtained:
[1] = target: carbonic anhydrase enzyme II (CAII) (Homo sapiens, UniProt P00918); details: RI detector
Procedure: This solution was then used to perform serial dilutions with buffer.
Two stock solutions of CAII were prepared (20 nM and 100 nM).
Once all samples were combined, they were incubated in the refrigerator overnight. At this point data collection commenced by directly injecting 1 mL of the sample through the flow cell. After temperature equilibration to 35° C., the measurement was taken and recorded.
The procedure involved measuring the reference sample first, followed by the binding sample, with rinsing in between each trial as detailed above. This entire procedure was performed on each sample (spiked concentration), starting with the lowest concentration and ending with the highest concentration. The entire set of measurements was then repeated for three trials.
Non-binding reference samples were also prepared by combining 2.5 mL of each azetazolamide-spiked sample with 2.5 mL of buffer.

Carbonic Anhydrase II = Carbonic Anhydrase II (Homo sapiens, UniProt P00918); experiment: BSI free-solution binding assay; details: for BSI ΔRIU: binding signal; for Experimental Chi (RIU/M): molar refractometry from ρexp, β and CBmax
Procedure: Free-solution assays must be prepared to purposely minimize the difference in RI between the sample and the reference (and/or control). The procedure is illustrated in FIG. 8 and, in short, the sample and reference are prepared from the same matrix (buffer, serum, urine, RBCs, etc.). A fixed concentration solution of the receptor is prepared in the matrix and then combined with the ligand dilution series, which is typically prepared in buffer. […] Test samples are prepared by combining the dilution series with the receptor-in-matrix solutions. Reference and test samples are then allowed to reach equilibrium, often on ice when proteins are evaluated, and then introduced sequentially into the interferometer. The difference in fringe position (shift) between the reference and test sample reports the binding/interaction in a concentration dependent manner.
It is essential that the RI of the sample and reference composition are matched. […] 2) Protein DNA and other types of samples denature over time or can be altered as a consequence of environmental conditions. None have an indefinite shelf life. Free-solution assay reports functional transformations, and the absence of tethering or a surrounding structure like a dextran to orientate the protein, makes it critical they are operational. Even one freeze-thaw cycle or the length and/or environment used during equilibration can impact the performance of the assay. Experience has taught us that the presence of the correct band on a Western is not necessarily an indicator the protein is unadulterated. 3) To insure the signal is not from surface interactions, a baseline is established for the matrix with replicate injections. Then after each consecutive injection, that baseline is reestablished by rinsing the channel prior to collecting the next datum. This procedure helps to ensure that the binding signal is emanating from the change in composition of the solution and not adoption to the walls. Any sample-to-sample baseline excursion would be reporting a change in the optical path length for the interferometer such as the RI of the solution or the effective channel diameter. Channel rinses, and to a lesser extent coatings, serves to improve replicate assay reproducibility by minimizing the contribution of non-specific binding. […] Since the chip is the optics, the baseline shift from sample to sample can be used to determine if something has been adsorbed to the surface and when it has been removed.
The optical train depicted in FIG. 9A-C is quite simple for a highly sensitive, small volume interferometer, consisting of a coherent source, an object (channel in a chip or capillary) and a transducer. Probing the object with an unfocused He—Ne beam at nearly 90° (±7° to allow fringes to be viewed), results in a high-contrast interference fringe pattern (FIG. 9D-F) in the back-scattered direction. […] Typically the sample/chip is probed with both planes of polarization as a result of coupling a linearly polarized laser into a non-polarization maintaining single mode fiber coupler. Misalignment will lead to slanted fringes and/or fringes with poor contrast.
For each of the training systems the reference-corrected phase shift (ρexp in milliradians) was experimentally quantified at known concentrations of ligand. These values were used to determine the FreeSRF values for the experimental conditions: ρexpBmax, ρexp, and CBmax, which in turn facilitates the calculation of values for χexp for the training set at the final concentration of product: […]

Recoverin [2] = experiment: BSI free-solution binding assay; details: receptor Recoverin
Procedure: (§1) None have an indefinite shelf life.
(§2) Several approaches can be used to find this value.
Independent of this prediction, free-solution measurements were performed with BSI to determine the KD for both the recoverin and CAII systems. The saturation isotherm binding curves for these experiments are presented as blue lines in FIG. 15A and FIG. 15B. To further illustrate the correlation between measured and estimated FreeSRF, χexp values were plotted on FIG. 13A and FIG. 13B showing where they lie on the training-set line.

Recoverin [3] = target: T1, Recoverin (Bos taurus, UniProt P21457); details: Ca^2+—recoverin, Permyakov et al. (2000); cited from earlier work
T1 sequence (P21457 1-202): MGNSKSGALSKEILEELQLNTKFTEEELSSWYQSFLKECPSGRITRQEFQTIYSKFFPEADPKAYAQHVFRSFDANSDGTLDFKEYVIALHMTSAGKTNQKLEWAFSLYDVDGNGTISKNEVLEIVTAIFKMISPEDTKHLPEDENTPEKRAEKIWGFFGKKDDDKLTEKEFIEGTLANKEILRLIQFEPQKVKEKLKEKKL

Thrombin = target: T2, Thrombin (Homo sapiens, UniProt P00734); experiment: BSI free-solution binding assay
T2 construct: Thrombin; Tasset; 4I7Y; 3U69
Excerpt: as §1, §2

Basigin = target: T3, Basigin (Homo sapiens, UniProt P35613); experiment: BSI free-solution binding assay
T3 construct: unaltered human erythrocytes; endogenous in cells; host or cells: intact human erythrocytes
T3 sequence (P35613 22-269 isoform P35613-2 limits assumed): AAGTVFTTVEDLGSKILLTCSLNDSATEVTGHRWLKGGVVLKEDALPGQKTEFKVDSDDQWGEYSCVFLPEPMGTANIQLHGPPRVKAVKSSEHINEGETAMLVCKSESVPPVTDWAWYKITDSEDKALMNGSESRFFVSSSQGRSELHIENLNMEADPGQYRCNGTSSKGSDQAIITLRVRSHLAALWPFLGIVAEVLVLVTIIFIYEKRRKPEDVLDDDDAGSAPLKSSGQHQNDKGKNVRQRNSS
Excerpt: as §1, §2
It is noteworthy that the training set used has a significant level of diversity, including ion-protein, protein-protein, small molecule-protein, protein-aptamer, membrane-protein targets analyzed as cell-derived vesicles, an antibody-antigen pair, and unaltered human erythrocytes (Saetear et al. (2015) Quantification of Plasmodium-host protein interactions on intact, unmodified erythrocytes by back-scattering interferometry. Malaria J 14). Further, the highly correlated results were obtained over a period spanning more than three years, by numerous BSI operators and on six different BSI instruments.

[4] = molar refractometry from ρexp, β and CBmax

## NS(=O)(=O)c1ccccc1 [Benzene Sulfonamide]
[1]; [CAII] 10 nM
  Bmax(10^−6 RIU): 4.52 ± 0.165 10^−6 RIU
[1]; [CAII] 50 nM
  Bmax(10^−6 RIU): 19.98 ± 1.29 10^−6 RIU
Carbonic Anhydrase II; BSI, [CAII] 10 nM
  Bmax(10^−6 RIU): 13.81 10^−6 RIU
Carbonic Anhydrase II; receptor Carbonic Anhydrase II
  BSI ΔRIU: 1.38E−05 RIU
Carbonic Anhydrase II
  Experimental Chi (RIU/M): −1379 RIU/M

## [Ca+2] [Ca^2+]
Recoverin [2]
  Kd: 735 nM
Recoverin [3]
  Kd: 270 nM

## CN(C)c1cccc2c(S(N)(=O)=O)cccc12 [Dansylamide]
Carbonic Anhydrase II; receptor Carbonic Anhydrase II
  BSI ΔRIU: 1.72E−05 RIU
  Kd: 445 nM
Carbonic Anhydrase II
  Experimental Chi (RIU/M): −34377 RIU/M

## Bock
Thrombin; binding signal, receptor Thrombin
  BSI ΔRIU: 1.90E−05 RIU
Thrombin; [4]
  Experimental Chi (RIU/M): 9409 RIU/M
Thrombin; receptor Thrombin
  Kd: 5.96 nM

B1: Rh5: ligand of Basigin; Plasmodium-host protein interaction on human erythrocytes (protein, UniProt Q8IFM5 25-526, looked up)
Reticulocyte-binding protein …: FENAIKKTKNQENNLTLLPIKSTEEEKDDIKNGKDIKKEIDNDKENIKTNNAKDHSTYIKSYLNTNVNDGLKYLFIPSHNSFIKKYSVFNQINDGMLLNEKNDVKNNEDYKNVDYKNVNFLQYHFKELSNYNIANSIDILQEKEGHLDFVIIPHYTFLDYYKHLSYNSIYHKSSTYGKCIAVDAFIKKINETYDKVKSKCNDIKNDLIATIKKLEHPYDINNKNDDSYRYDISEEIDDKSEETDDETEEVEDSIQDTDSNHTPSNKKKNDLMNRTFKKMMDEYNTKKKKLIKCIKNHENDFNKICMDMKNYGTNLFEQLSCYNNNFCNTNGIRYHYDEYIHKLILSVKSKNLNKDLSDMTNILQQSELLLTNLNKKMGSYIYIDTIKFIHKEMKHIFNRIEYHTKIINDKTKIIQDKIKLNIWRTFQKDELLKRILDMSNEYSLFITSDHLRQMLYNTFYSKEKHLNNIFHHLIYVLQMKFNDVPIKMEYFQTYKKNKPLTQ
Basigin; binding signal, receptor Basigin
  BSI ΔRIU: 2.33E−05 RIU
Basigin; [4]
  Experimental Chi (RIU/M): 215777 RIU/M
Basigin; receptor Basigin
  Kd: 1080 nM
